Laboratory results as given in patent publication US20240018146A1, “COMPOSITIONS AND METHODS OF USING THE SAME FOR TREATMENT OF NEURODEGENERATIVE AND MITOCHONDRIAL DISEASE” (MITOKININ, INC., priority 2020, published 2024).
Read-outs that look alike come from different tables or passages of the source.

How the values were obtained:
Format in all cases: cell-based
HeLa MKYP cells [1] = test: Human mitophagy assay (HeLa mKeima assay, FACS)
In short: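 HeLa cells carrying the pH-sensitive mtKeima tag incubated 16 h with compound at several concentrations, then 1 uM FCCP/oligomycin for 6 h. FACS detects mitochondria in lysosomes through the Keima emission shift, quantified as percentage of cells in mitophagy.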

HeLa MKYP cells [2] = test: Cell death measured by DAPI staining, with 1 μM FCCP/oligomycin or no toxin (no FO); settings: for Max cell death at 25 μM compound, 1 uM FO (%) / Cell death at 25 μM (no FO) (%): 25 μM compound
In short: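 HeLa MKYP cells were treated with compounds alongside 1 μM FCCP/oligomycin or no toxin for 6 or 6.5 h. Cell death was scored by DAPI staining, with H2O2 treatment as the death control.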

[3] = Mitotoxicity / Mitotox safety margin (therapeutic window)
[4] = Homo sapiens, HeLa, read-out: Mitophagy induction EC50
[5] = Homo sapiens, HeLa, HeLa mKeima assay, read-out: Mitophagy EC50 (HeLa mKeima assay)
[6] = read-out: Mitophagy induction EC50

Row | SMILES | EC50 (HeLa MKYP cells [1]; [4]) [µM] | Highest safe dose (cytotoxicity; no FO; safe means DAPI+ <20%) (HeLa MKYP cells [2]) [µM] | Max % death with 1 μM FO (HeLa MKYP cells [2]) [%] | Mito-Safety Index (highest safe dose/EC50) [3] | Highest safe dose (μM) (mitotox or cytotox) [3] [µM] | EC50 (HeLa MKYP cells [1]; [5]) [µM] | Max cell death at 25 μM compound, 1 uM FO (%) (HeLa MKYP cells [2]) | Cell death at 25 μM (no FO) (%) (HeLa MKYP cells [2]) | Mitotox safety margin (Therapeutic window) [3] | EC50 (HeLa MKYP cells [1]; [6]) [µM]
1 | C[C@@H]1CN([C@@H]2COc3cc(F)ccc3[C@H]2Nc2ncnc3[nH]c(C4CC4)cc23)C[C@H](C)O1 [EP-0040949] | 0.01 | 25.0 | 21.1 | 114.83 | 1.2 | – | – | – | – | –
2 | c1ccc2c(c1)CC[C@H](N1C[C@H]3COC[C@H]3C1)[C@H]2Nc1ncnc2[nH]c(C3CC3)cc12 [EP-0039713] | 0.1 | 25.0 | 26.3 | 9.46 | 0.9 | 0.1 | 19.2 | 12.9 | + (+ = <10) | –
3 | c1ccc2c(c1)CC[C@H](N1CCOCC1)[C@H]2Nc1ncnc2[nH]c(C3CC3)cc12 (single isomer, unassigned) [EP-0040108] | 0.13 | 25.0 | 19.1 | 138.83 | 18.3 | – | – | – | – | –
4 | C[C@@H]1CN([C@@H]2COc3ccccc3[C@H]2Nc2ncnc3[nH]c(C(F)(F)F)cc23)C[C@H](C)O1 [EP-0040943] | 0.05 | 25.0 | 20.9 | 47.50 | 2.3 | – | – | – | – | –
5 | Fc1ccc2c(c1)CC[C@@H](N1C[C@H]3COC[C@H]3C1)[C@@H]2Nc1ncnc2[nH]c(C(F)(F)F)cc12 (single isomer, unassigned) [EP-0040721] | 0.18 | 8.3 | 36.3 | 46.94 | 8.3 | – | – | – | – | –
6 | COC[C@@H]1CCN([C@H]2COc3ccccc3[C@@H]2Nc2ncnc3[nH]c(C(F)(F)F)cc23)C1 (single isomer, unassigned) [EP-0041071] | – | 25.0 | 12.6 | 47.29 | 3.3 | – | – | – | – | 0.07
7 | CN(c1ncnc2[nH]c(C3CC3)cc12)C1c2ccccc2CCC1N1C[C@H]2COC[C@H]2C1 (stereo partly drawn) [EP-0039743] | 4.17 | 25.0 | 28.2 | 5.99 | 25.0 | 3.88 | 33.7 | 11.6 | – | –
8 | C[C@H]1CN([C@H]2CCc3ccccc3[C@@H]2Nc2ncnc3[nH]c(C4CC4)cc23)CCO1 (single isomer, unassigned) [EP-0040511] | 0.07 | 25.0 | 13.1 | 53.66 | 3.5 | – | – | – | – | –
9 | COC1CN([C@H]2COc3ccccc3[C@@H]2Nc2ncnc3[nH]c(C(F)(F)F)cc23)C1 [EP-0040697] | – | 8.3 | 57.6 | 15.51 | 8.3 | – | – | – | – | 0.54
10 | C[C@@H]1CN([C@H]2COc3cc(F)ccc3[C@@H]2Nc2ncnc3[nH]c(C(F)(F)F)cc23)C[C@H](C)O1 (single isomer, unassigned) [EP-0040773] | 0.13 | 25.0 | 27.3 | 77.04 | 9.9 | – | – | – | – | –
11 | Fc1ccc2c(c1)OC[C@H](N1C[C@@H]3COC[C@H]3C1)[C@H]2Nc1ncnc2[nH]c(C3CC3)cc12 (single isomer, unassigned) [EP-0040644] | – | 25.0 | 8.1 | 72.77 | 25.0 | – | – | – | – | 0.34
12 | COC1CN([C@@H]2COc3ccccc3[C@H]2Nc2ncnc3[nH]c(C4CC4)cc23)C1 [EP-0040848] | 0.16 | 25.0 | 10.6 | 152.94 | 25.0 | – | – | – | – | –
13 | FC(F)(F)c1cc2c(N[C@@H]3c4ccccc4OC[C@H]3C3CCOCC3)ncnc2[nH]1 (single isomer, unassigned) [EP-0040700] | 0.11 | 25.0 | 14.1 | 41.37 | 4.7 | – | – | – | – | –
14 | C[C@@H]1CN([C@@H]2COc3ccccc3[C@H]2Nc2ncnc3[nH]c(C4CC4)cc23)C[C@H](C)O1 [EP-0040945] | 0.04 | 25.0 | 18.4 | 27.95 | 1.2 | – | – | – | – | –
15 | C[C@@H]1CN([C@H]2COc3cc(F)ccc3[C@@H]2Nc2ncnc3[nH]c(C(F)(F)F)cc23)C[C@H](C)O1 [EP-0040946] | > 25 | – | 4.8 | – | 25.0 | – | – | – | – | –
16 | FC(F)(F)c1cc2c(N[C@H]3c4ccccc4OC[C@@H]3N3C[C@H]4COC[C@H]4C3)ncnc2[nH]1 [EP-0040138] | 0.77 | 25.0 | 9.4 | 32.50 | 25.0 | – | – | – | – | –
17 | Fc1cccc2c1CC[C@@H](N1C[C@H]3COC[C@H]3C1)[C@@H]2Nc1ncnc2[nH]c(C(F)(F)F)cc12 (single isomer, unassigned) [EP-0040506] | 0.05 | 25.0 | 41.0 | 44.10 | 2.2 | – | – | – | – | –
18 | c1ccc2c(c1)OC[C@@H](N1C[C@H]3COC[C@H]3C1)[C@@H]2Nc1ncnc2[nH]c(C3CC3)cc12 (single isomer, unassigned) [EP-0040392] | 0.11 | 25.0 | 11.8 | 153.83 | 16.6 | – | – | – | – | –
19 | CO[C@@H]1CCN([C@H]2COc3ccccc3[C@@H]2Nc2ncnc3[nH]c(C4CC4)cc23)C1 [EP-0041451] | 0.01 | 25.0 | 6.5 | 87.93 | 0.7 | – | – | – | – | –
20 | c1ccc2c(c1)CC[C@H](C1CCOCC1)[C@H]2Nc1ncnc2[nH]c(C3CC3)cc12 (single isomer, unassigned) [EP-0040582] | 0.08 | 25.0 | 17.7 | 68.01 | 5.1 | – | – | – | – | –
21 | FC(F)OC1CN([C@H]2COc3ccccc3[C@@H]2Nc2ncnc3[nH]c(C(F)(F)F)cc23)C1 (single isomer, unassigned) [EP-0041541] | 0.29 | 25.0 | 19.1 | 28.61 | 8.3 | – | – | – | – | –
22 | C[C@@H]1CN([C@H]2COc3ccccc3[C@@H]2Nc2ncnc3[nH]c(C4CC4)cc23)C[C@H](C)O1 [EP-0040944] | 1.22 | 25.0 | 6.3 | 20.51 | 25.0 | – | – | – | – | –
23 | C[C@@H]1CN([C@H]2COc3cc(F)ccc3[C@@H]2Nc2ncnc3[nH]c(C4CC4)cc23)CCO1 [EP-0041122] | 0.05 | 16.7 | 16.9 | 37.43 | 2.0 | – | – | – | – | –
24 | c1ccc2c(c1)OC[C@@H](C1CCOCC1)[C@@H]2Nc1ncnc2[nH]c(C3CC3)cc12 [EP-0040729] | 0.06 | 25.0 | 17.1 | 52.06 | 3.2 | – | – | – | – | –
25 | COC1CN([C@H]2COc3ccccc3[C@@H]2Nc2ncnc3[nH]c(C4CC4)cc23)C1 [EP-0040847] | – | 25.0 | 5.2 | – | 25.0 | – | – | – | – | > 25
26 | CN(c1ncnc2[nH]c(C(F)(F)F)cc12)C1c2ccccc2CCC1N1C[C@H]2COC[C@H]2C1 (stereo partly drawn) [EP-0039742] | 3.36 | 25.0 | 20.4 | 7.45 | 25.0 | 3.33 | 13.8 | 2.45 | – | –
27 | N#Cc1ccc2c(c1)CC[C@H](N1C[C@H]3COC[C@H]3C1)[C@H]2Nc1ncnc2[nH]c(C(F)(F)F)cc12 [EP-0040120] | 2.3 | 8.3 | 93.5 | – | 8.3 | – | – | – | – | –
